Experimental data: ChEMBL document CHEMBL1144862, “A mechanism for substrate-Induced formation of 6-hydroxyflavin mononucleotide catalyzed by C30A trimethylamine dehydrogenase” (Bioorg Med Chem Lett, 2003)

Test: Kcat value was determined
Format: ADME

- k cat: < 2
Compound: Cc1cc2c(nc3c(=O)[nH]c(=O)nc-3n2C[C@@H](O)[C@@H](O)[C@@H](O)COP(=O)(O)O)c(O)c1C
